Consider two compounds from US8324189B2, “Use of zolendronate for the manufacture of a medicament for the treatment of bone metabolism diseases” (Novartis Pharmaceuticals Corporation, priority 2001, dated 2012).

One may read the Cmax as the maximum level reached in the sampled fluid or tissue.

The nature of data set [1]: controlled trials in cancer patients: percentage of patients showing a skeletal related adverse event. In kind it is in vivo, human. As for the experimental part: The 4 mg dose of zoledronic acid has been determined to be clinically effective in several controlled trials in cancer patients, with placebo or the bisphosphonate pamidronate as comparator.
The subject of data set [2] is prostate cancer cell lines. To be noted: in vitro treatment; cited from earlier work.
Data set [3] is described as follows: renal adverse events (increase in serum creatinine over baseline) in clinical studies. In kind it is in vivo, human. To be noted: for incidence of renal adverse events / incidence of renal adverse events (patients with event / patients): 4 mg. As for the experimental part: The dose of 4 mg zoledronic acid infused over 15 minutes offers a safety advantage in terms of renal tolerability over the shorter infusion time of 5 minutes. The lower incidence of renal adverse events with zoledronic acid infused over 15 minutes versus 5 minutes is summarized below. Renal adverse events are defined as increases in a patient's serum creatinine over baseline, by ≦0.5 mg/dL if baseline <1.4 mg/dL, by ≦1 mg/dL if baseline […], by ≦2-fold irrespective of baseline value.

Data set [4] is described as follows: pharmacokinetic study of zoledronic acid in cancer patients with bone metastases (plasma concentration, urinary excretion). In kind it is in vivo, human. The conditions noted are these: for Cmax: human, plasma, intravenous. As for the experimental part: FIG. 1. Plasma concentrations in patients after 4 mg zoledronic acid infused over 5 minutes and 15 minutes (mean data for n=5 patients in 4 mg/5 min group, n=7 patients in 4 mg/15 min group, study 503 [2]
• 1. The volume of 100 ml containing 4 mg zoledronic acid is infused over 15 minutes as an intravenous drip, which allows the drug to be administered at a uniform and precise rate. […] The pharmacokinetic parameters derived from the individual patients' plasma concentration versus time curves, and urinary excretion of drug are tabulated below.

The test system of data set [5] is subcutaneous prostate cancer cell line tumours. The conditions noted are these: cited from earlier work.
Data set [6] in a line: renal adverse events (increase in serum creatinine over baseline) in clinical studies. In kind it is in vivo, human.
The subject of data set [7] is osteoclastic bone resorption. To be noted: animal models, cited from earlier work.
[8] abbreviates: Study 10, breast cancer patients.
Setting [9] is: Study 10, multiple myeloma patients.
Where [10] appears, read: Study 10, breast cancer and multiple myeloma patients, 5 minutes infusion.
Where [11] appears, read: Study 10, breast cancer and multiple myeloma patients, 15 minutes infusion.
Where [12] appears, read: Study 11, lung cancer patients, 5 minutes infusion.
Setting [13] is: Study 11, lung cancer patients, 15 minutes infusion.
The mark [14] stands for this setting: Study 39, prostate cancer patients, 5 minutes infusion.
Setting [15] is: Study 39, prostate cancer patients, 15 minutes infusion.
Where [16] appears, read: 4 mg infused over 5 minutes, n = 5.
[17] abbreviates: 4 mg infused over 15 minutes, n = 7.

Each structure is given as a SMILES string.

In the case of `O=P(O)(O)C(O)(Cn1ccnc1)P(=O)(O)O` [zoledronic acid, 1-hydroxy-2-(imidazol-1-yl)ethane-1,1-diphosphonic acid], the “efficacy versus Aredia (disodium pamidronate) 90 mg dosed over 2-4 hours” value in data set [1] (4 mg infused over approximately 15 minutes) is given as “comparable efficacy”. The “Percentage of patients showing a skeletal related adverse event” value in data set [1] (setting [8]) was 42%; in data set [1] (setting [9]), 47%; in data set [1] (Study 11, hypercalcemic lung cancer patients), 42%; in data set [1] (Study 11, hypercalcemic patients with other solid tumors), 33%; in data set [1] (Study 39, prostate cancer patients), 33%. The “efficacy over placebo in the treatment of bone metastases” value in data set [1] (double blind, placebo-controlled clinical study, prostate cancer patients) was “statistically significant efficacy benefit over placebo”. Also, the “growth of prostate cancer cell lines” value in data set [2] was “significantly reduced the growth of the cell lines”. In addition, the “renal safety versus 4 mg/5 minutes and higher zoledronic acid dose/15 minutes” value in data set [3] (4 mg/15 minutes) is “improved renal safety”. For the same compound, the “incidence of renal adverse events” value in data set [3] (setting [10]) is 13.2%; in data set [3] (setting [11]), 8.8%; in data set [3] (Study 10, breast cancer and multiple myeloma patients, 15 minutes infusion, listed as Zoledronic acid), 8.8%; in data set [3] (setting [12]) it was 16.4%; in data set [3] (setting [13]) it was 10.9%; in data set [3] (setting [14]), 19.8%. For the same compound, in data set [3] (setting [15]), the “incidence of renal adverse events” value was determined as 15.2%. Moreover, the “incidence of renal adverse events (patients with event / patients)” value was 36/272 patients in data set [3] (setting [10]); 24/272 patients in data set [3] (setting [11]); 10/61 patients in data set [3] (setting [12]); 18/165 patients in data set [3] (setting [13]); 22/111 patients in data set [3] (setting [14]); 14/78 patients in data set [3] (setting [15]). The “Differences in AUC, 15 minutes versus 5 minutes infusion” value in data set [4] (4 mg) is recorded as “not significant”. Besides, in data set [4] (4 mg), the “Differences in Ae, 15 minutes versus 5 minutes infusion” value was “not significant”. Moreover, in data set [4] (4 mg), the “Differences in mean Cmax, 15 minutes versus 5 minutes infusion” value is “statistically significant”. Further, the “AUC 0-24 h” value in data set [4] (setting [16]) is recorded as 378 ± 116 ngxh/ml; in data set [4] (setting [17]), 420 ± 218 ngxh/ml. Besides, the “Ae 0-24 h (amount of drug excreted in urine)” value is given as 38.7 ± 6.34 % of dose in data set [4] (setting [16]) and 37.4 ± 17.0 % of dose in data set [4] (setting [17]). The Cmax is 403 ± 118 ng/mL in data set [4] (4 mg, 4 mg infused over 5 minutes, n = 5, cancer patients with bone metastases) and 264 ± 86 ng/mL in data set [4] (4 mg, 4 mg infused over 15 minutes, n = 7, cancer patients with bone metastases). Further, the tumour volume entry in data set [5] is listed as “no significant decrease in tumour volume”. The “renal safety versus higher doses of zoledronic acid, 8 mg and 16 mg” value in data set [6] (4 mg infused over 15 minutes) was “improved renal safety”. For the same compound, the “impact on renal function” value in data set [7] (doses inhibiting bone resorption) was “no appreciable impact on renal function”. Besides, the “inhibition of osteoclastic bone resorption versus earlier generation bisphosphonates” value in data set [7] (doses that do not affect bone formation and mineralization) is reported as “inhibits osteoclastic bone resorption more effectively than earlier generation bisphosphonates”.
As to `NCCC(O)(P(=O)(O)O)P(=O)(O)O` [pamidronate, disodium pamidronate], the “Percentage of patients showing a skeletal related adverse event” value in data set [1] (setting [8]) is given as 47%; in data set [1] (setting [9]), 49%. For the same compound, the “renal tolerability (incidence of renal adverse events)” value in data set [6] (90 mg infused over 2 hours) was 8.2%.
